Measurements reported in article PMC10745867, “Biotransformation of Ursonic Acid by Aspergillus ochraceus and Aspergillus oryzae to Discover Anti-Neuroinflammatory Derivatives” (Molecules, 2023).
“Also recorded” adds a separate entry of the source.

How the values were obtained:
[1] = test system: NO production induced by LPS in BV-2 cells; assay: Inhibition of LPS-induced NO production in BV-2 cells (Griess method); format: cell-based; conditions: for IC50: BV-2 cells, 100 ng/mL LPS, 48 h, Griess reaction, mean ± SD, n = 3; for Suppression of NO generation (result in words): LPS-triggered BV-2 cells, Griess method
Protocol: To assess the potential capabilities of all modified products in counteracting neuroinflammation, we measured their suppressive effects on NO generation within LPS-triggered BV-2 cells using the Griess method.
(§1) NO production was assessed indirectly using the Griess reaction by measuring nitrite concentration in a culture medium. BV-2 cells were cultured in Dulbecco’s Modified Eagle Medium, supplemented with 10% FBS, 100 units/mL of penicillin, and 100 μg/mL of streptomycin. These cells were seeded in 96-well plates at a density of 8 × 10^4 cells/well and incubated for 24 h. Post incubation, they were exposed to 100 ng/mL of LPS alongside different compound concentrations for 48 h. A mixture of 100 μL culture supernatant and Griess reagent was left at room temperature for 10 min, with absorbance later read at 570 nm. L-NMMA served as the positive control. Cell viability was determined using the MTT assay, and experiments were conducted in triplicate. The IC50 for NO production inhibition was computed using GraphPad Prism 7.00 software.

[2] = Cell viability of BV-2 cells (MTT assay); format: cell-based; set-up: concentration or dose not given beside the values; conditions: mouse, mean ± SD, n = 3
Protocol: as §1

| SMILES | IC50 ([1]; Mus musculus, BV-2, 48 h) | melting point | IC50 [1] | viability at 48 h [2] | Suppression of NO generation (result in words) [1] |
| --- | --- | --- | --- | --- | --- |
| CC1C(=O)CC23CCC4(C)C5(C)C(O)CC6C(C)(C)C(=O)CCC6(C)C5C5OC5C4(OC2=O)C3C1C (stereo not drawn) [Compound 17, 3,21-dioxo-7β-hydroxyl-11β,12β-epoxyl-urs-13β,28β-lactone] | 40.8 ± 3.26 µM | 247 to 249 °C | – | 100 ± 3.54% | – |
| C[C@H]1[C@H](C)C2C3=CCC4[C@@]5(C)CCC(=O)C(C)(C)C5CC[C@@]4(C)[C@]3(C)CC[C@@]2(C(=O)O)C[C@@H]1O (stereo partly drawn) [Compound 2, 3-oxo-21β-hydroxy-12-en-urs-28-oic acid] | 38.2 ± 4.09 µM | – | – | 101 ± 2.45% | – |
| C[C@@H]1CC[C@]2(C(=O)O)CC[C@]3(C)C(=CC(=O)C4[C@@]5(C)CCC(=O)C(C)(C)C5CC[C@]43C)C2[C@H]1C (stereo partly shown) [Compound 6, 3,11-dioxo-12-en-urs-28-oic acid] | 50.2 ± 3.16 µM | – | – | 105 ± 4.23% | – |
| CC1C(=O)CC2(C(=O)O)CCC3(C)C(=CCC4C5(C)CCC(=O)C(C)(C)C5CC(O)C43C)C2C1C (stereo not drawn) [Compound 5, 3,21-dioxo-7β-hydroxy-urs-12-en-28-oic acid] | 52.8 ± 3.34 µM | 251 to 254 °C | – | 101 ± 4.11% | – |
| CC1C(O)CC23CCC4(C)C(C=CC5C6(C)CCC(=O)C(C)(C)C6CC(O)C54C)(OC2=O)C3C1C (stereo not drawn) [Compound 9, 3-oxo-7β,21β-dihydroxy-urs-11-en-13β,28β-lactone] | > 100 µM | 261 to 265 °C | – | 104 ± 3.86% | did not showcase any suppression capabilities; also recorded: did not exhibit any inhibitory activities |
| CC1C(O)CC23CCC4(C)C5(C)CCC6C(C)(C)C(=O)CCC6(C)C5C=CC4(OC2=O)C3C1C (stereo not drawn) [Compound 8, 3-oxo-21β-hydroxy-urs-11-en-13β,28β-lactone] | > 100 µM | 245 to 247 °C | – | 102 ± 3.54% | did not showcase any suppression capabilities; also recorded: did not exhibit any inhibitory activities |
| C[C@@H]1CC[C@]2(C(=O)O)CC[C@]3(C)C(=CCC4[C@@]5(C)CCC(=O)C(C)(C)C5CC[C@]43C)C2[C@]1(C)O (stereo partly drawn) [Compound 11, 3-oxo-19α-hydroxy-12-en-urs-28-oic acid] | 42.5 ± 3.7 µM | – | – | 101 ± 3.42% | – |
| C[C@@H]1CC[C@]2(C(=O)O[C@@H]3O[C@H](CO)[C@@H](O)[C@H](O)[C@H]3O)CC[C@]3(C)C(=CCC4[C@@]5(C)CCC(=O)C(C)(C)C5CC[C@]43C)C2[C@H]1C (stereo partly drawn) [Compound 12, ursonic acid-28-O-β-D-glucopyranosyl ester] | 31.1 ± 3.98 µM | – | – | 98.2 ± 4.37% | – |
| CC1C(O)CC23CCC4(C)C5(C)C(O)CC6C(C)(C)C(=O)CCC6(C)C5C5OC5C4(OC2=O)C3C1C (stereo not drawn) [Compound 15, 3-oxo-7α,21β-dihydroxyl-11β,12β-epoxyl-urs-13β,28β-lactone] | 36.6 ± 2.33 µM | 270 to 274 °C | – | 102 ± 3.18% | – |
| C[C@H]1[C@H](C)CC[C@]2(C(=O)O)CC[C@]3(C)C(=CC[C@@H]4[C@@]5(C)CCC(=O)C(C)(C)[C@@H]5CC[C@]43C)[C@H]12 [Compound 1, Ursonic acid] | 84.7 ± 3.22 µM | – | – | 98.8 ± 3.61% | – |
| C[C@@H]1C(=O)C[C@]2(C(=O)O)CC[C@]3(C)C(=CCC4[C@@]5(C)CCC(=O)C(C)(C)C5CC[C@]43C)C2[C@H]1C (stereo partly shown) [Compound 4, 3,21-dioxo-urs-12-en-28-oic acid] | > 100 µM | – | – | 104 ± 3.18% | did not showcase any suppression capabilities |

Compounds with a lower IC50 ([1]; Mus musculus, BV-2, 48 h), results first:

| IC50 ([1]; Mus musculus, BV-2, 48 h) | melting point | IC50 [1] | SMILES | viability at 48 h [2] | Suppression of NO generation (result in words) [1] |
| --- | --- | --- | --- | --- | --- |
| 15.2 ± 3.07 µM | 257 to 263 °C | – | CC1C(O)CC23CCC4(C)C5(C)CCC6C(C)(C)C(=O)CCC6(C)C5C5OC5C4(OC2=O)C3C1C (stereo not drawn) [Compound 13, 3-oxo-21β-hydroxyl-11β,12β-epoxyl-urs-13β,28β-lactone] | 103 ± 3.59% | – |
| 28.2 ± 2.97 µM | – | – | [H]/N=C(/NC)NCCC[C@H](N)C(=O)O [L-NMMA, reference compound] | 101 ± 4.36% | – |
| 11.6 ± 2.01 µM | 268 to 271 °C | – | COC1C=C2C3C(C)C(C)C(O)CC3(C(=O)O)CCC2(C)C2(C)CCC3C(C)(C)C(=O)CCC3(C)C12 (stereo not drawn) [Compound 7, 3-oxo-11α-methoxy-21β-hydroxy-urs-12-en-28-oic acid] | 99.2 ± 3.72% | – |
| 5.3 µM | 282 to 284 °C | 5.25 ± 3.19 µM | CC1=C2C(C3OC3C34OC(=O)C5(CCC23C)CC(O)C(C)C(C)C54)C2(C)CCC(=O)C(C)(C)C2C1 (stereo not drawn) [Compound 19, 3-oxo-21β-hydroxyl-7-methyl-11β,12β-epoxyl-7-ene-26-norurs-13β,28β-lactone] | 103 ± 3.03% | – |
| 22.6 ± 3.44 µM | 278 to 280 °C | – | CC1C(O)CC23CCC4(C)C5(C)CCC6C(C)(C)C(=O)CC(O)C6(C)C5C5OC5C4(OC2=O)C3C1C (stereo not drawn) [Compound 14, 3-oxo-1β,21β-dihydroxyl-11β,12β-epoxyl-urs-13β,28β-lactone] | 104 ± 4.92% | – |
| 8.2 µM | 284 to 288 °C | 8.23 ± 2.61 µM | COC1=CCC2(C)C(CCC3(C)C2CC=C2C4C(C)C(C)CCC4(C(=O)O)CCC23C)C1(C)C (stereo not shown) [Compound 10, 3-methoxy-urs-2,12-dien-28-oic acid] | 104 ± 4.05% | – |
| 17.4 ± 2.72 µM | 242 to 245 °C | – | CC1C(O)CC23CCC4(C)C5(C)CCC6C(C)(C)C(=O)C=CC6(C)C5C5OC5C4(OC2=O)C3C1C (stereo not drawn) [Compound 18, 3-oxo-21β-hydroxyl-11β,12β-epoxyl-urs-1-ene-13β,28β-lactone] | 103 ± 3.26% | – |
| 20.9 ± 2.13 µM | – | – | C[C@H]1[C@H](C)C2C3=CCC4[C@@]5(C)CCC(=O)C(C)(C)C5C[C@H](O)[C@@]4(C)[C@]3(C)CC[C@@]2(C(=O)O)C[C@@H]1O (stereo partly drawn) [Compound 3, 3-oxo-7β,21β-dihydroxy-12-en-28-oic acid] | 100 ± 3.92% | – |
| 6.9 µM | 268 to 273 °C | 6.86 ± 3.52 µM | C[C@H]1[C@H](C)C2[C@@]3(CC[C@@]4(C)[C@@]5(C)C([C@H]6O[C@H]6[C@]24OC3=O)[C@@]2(C)CCC(=O)C(C)(C)C2C[C@@H]5O)C[C@@H]1O (stereo partly drawn) [Compound 16, 3-oxo-7β,21β-dihydroxyl-11β,12β-epoxyl-urs-13β,28β-lactone] | 97.8 ± 4.75% | – |
